Activity calls are given as the source filed them. No cut-off for these calls is given here.
Tests used:
[1] = biological target: Stimulator of interferon genes protein (Homo sapiens) (UniProt Q86WV6); test: Inhibition of human wild type STING (R232) expressed in human THP-1 Dual cells assessed as reduction in cGAMP-induced IL-6 expression; format: cell-based; conditions: 293-Dual hSTING-R232
[2] = Oral bioavailability in Sprague-Dawley rat at 3 mg/kg; format: ADME, organism-based; conditions: in vivo
[3] = Metabolic stability in human liver microsomes assessed as half life; format: ADME, Microsome
[4] = biological target: Stimulator of interferon genes protein (Homo sapiens) (UniProt Q86WV6); test: Binding affinity to Flag-tagged human STING expressed in HEK293T cells assessed as labelling at 0.5 to 4 uM pretreated for 15 mins measured after 1 hr in presence of 1 uM 1-(2,2-difluorobenzo[d][1,3]dioxol-5-yl)-3-(5-ethynyl-1H-indol-3-yl)urea by TAMRA-N3 fluorescent assay; format: cell-based; conditions: dose 0.5-4 µM, time 75.0 min
[5] = biological target: Stimulator of interferon genes protein (Homo sapiens) (UniProt Q86WV6); test: Inhibition of STING in human THP1-Dual cells assessed as inhibition of MSA-2 induced ISG signalling measured after 1 hr incubation followed by stimulated with MSA-2 by Western blotting analysis; format: cell-based
[6] = biological target: Stimulator of interferon genes protein (Homo sapiens) (UniProt Q86WV6); test: Inhibition of STING downstream signalling in human THP1-Dual cells assessed as inhibition of MSA-2 induced IFN-beta mRNA expression at 0.3 to 3 uM pre-treated for 1 hr followed by stimulated with MSA-2 measured after 4 hrs by real-time PCR analysis; format: cell-based; conditions: dose 0.3-3 µM, time 5.0 hrs
[7] = biological target: Stimulator of interferon genes protein (Homo sapiens) (UniProt Q86WV6); test: Inhibition of STING downstream signalling in human THP1-Dual cells assessed as inhibition of cGAMP induced IFN-beta mRNA expression at 0.3 to 3 uM pre-treated for 1 hr followed by stimulated with cGAMP measured after 4 hrs by real-time PCR analysis; format: cell-based; conditions: dose 0.3-3 µM, time 5.0 hrs
[8] = biological target: Stimulator of interferon genes protein (Homo sapiens) (UniProt Q86WV6); test: Inhibition of STING downstream signalling in human THP1-Dual cells assessed as inhibition of HT-DNA induced ISG56 mRNA expression at 0.3 to 3 uM pre-treated for 1 hr followed by stimulated with HT-DNA measured after 4 hrs by real-time PCR analysis; format: cell-based; conditions: dose 0.3-3 µM, time 5.0 hrs
[9] = tested on: Stimulator of interferon genes protein (Homo sapiens), Q86WV6 [UNDEFINED MUTATION]; test: Inhibition of human STING expressed in 293T-Dual-hSTING-H232 cells assessed as reduction in cGAMP-induced secreted luciferase reporter of interferon stimulated gene (ISG) measured after 24 hrs incubation; format: cell-based
Chain of Stimulator of interferon genes protein (Homo sapiens), Q86WV6 [UNDEFINED MUTATION] (Q86WV6 whole entry, looked up, change not shown): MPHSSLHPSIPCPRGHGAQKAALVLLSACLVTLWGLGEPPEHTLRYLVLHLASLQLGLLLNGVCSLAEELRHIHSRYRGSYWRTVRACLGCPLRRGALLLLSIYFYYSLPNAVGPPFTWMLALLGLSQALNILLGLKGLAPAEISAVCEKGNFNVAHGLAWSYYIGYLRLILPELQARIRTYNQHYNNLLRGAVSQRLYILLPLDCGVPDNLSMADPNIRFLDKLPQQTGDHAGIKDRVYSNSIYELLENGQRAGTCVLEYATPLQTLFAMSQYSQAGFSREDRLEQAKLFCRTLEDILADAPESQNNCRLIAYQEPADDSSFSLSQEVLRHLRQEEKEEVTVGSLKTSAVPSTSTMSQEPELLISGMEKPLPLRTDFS

[10] = tested on: Stimulator of interferon genes protein (Homo sapiens), Q86WV6 [UNDEFINED MUTATION]; test: Inhibition of human STING expressed in 293T-Dual-hSTING-AQ cells assessed as reduction in cGAMP-induced secreted luciferase reporter of interferon stimulated gene (ISG) measured after 24 hrs incubation; format: cell-based
[11] = biological target: T1, Stimulator of interferon genes protein (Mus musculus) (UniProt Q3TBT3); test: Inhibition of STING downstream signalling in mouse RAW264.7 cells assessed as inhibition of […] induced Cxcl-10 mRNA level pre-treated for 1 hr followed by stimulated with […] measured after 4 hrs by real-time PCR analysis; format: cell-based; conditions: dose 0.3-3 µM, time 5.0 hrs
T1 sequence (whole entry): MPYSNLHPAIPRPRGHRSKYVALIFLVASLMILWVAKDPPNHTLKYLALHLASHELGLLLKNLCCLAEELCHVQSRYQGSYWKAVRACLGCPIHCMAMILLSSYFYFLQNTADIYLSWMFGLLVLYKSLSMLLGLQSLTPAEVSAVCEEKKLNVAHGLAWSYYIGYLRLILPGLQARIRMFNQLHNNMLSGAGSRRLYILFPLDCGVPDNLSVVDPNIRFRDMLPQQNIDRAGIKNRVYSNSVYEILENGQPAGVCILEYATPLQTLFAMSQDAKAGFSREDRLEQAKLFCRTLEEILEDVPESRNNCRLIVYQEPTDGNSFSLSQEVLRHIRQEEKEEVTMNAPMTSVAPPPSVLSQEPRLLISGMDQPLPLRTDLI

[12] = biological target: T1, Stimulator of interferon genes protein (Mus musculus); test: Inhibition of STING downstream signalling in mouse RAW264.7 cells assessed as inhibition of DMAAA induced Isg15 mRNA level pre-treated for 1 hr followed by stimulated with DMAAA measured after 4 hrs by real-time PCR analysis; format: cell-based; conditions: dose 0.3-3 µM, time 5.0 hrs
[13] = biological target: T1, Stimulator of interferon genes protein (Mus musculus); test: Inhibition of STING downstream signalling in mouse BMDM cells assessed as inhibition of MSA-2 induced Isg15 mRNA level pre-treated for 1 hr followed by stimulated with MSA-2 measured after 4 hrs by real-time PCR analysis; format: cell-based; conditions: dose 0.3-3 µM, time 5.0 hrs
[14] = biological target: T1, Stimulator of interferon genes protein (Mus musculus); test: Inhibition of STING downstream signalling in mouse BMDM cells assessed as inhibition of MSA-2 induced IRF3 phosphorylation pre-treated for 1 hr followed by stimulated with MSA-2 measured after 4 hrs by Western blot analysis; format: cell-based; conditions: dose 0.3-3 µM, time 5.0 hrs
Mus musculus [15] = test: Anti-inflammatory activity against MSA-2 induced C57BL/6 mouse inflammation model assessed as inhibition of MSA-2 induced IL-6 level in kidney at 10 mg/kg, ip pre-treated for 1 hr followed by stimulated with MSA-2 for 4 hrs by ELISA; format: functional, organism-based; conditions: time 5.0 hrs
Mus musculus [16] = test: Anti-inflammatory activity against MSA-2 induced C57BL/6 mouse inflammation model assessed as inhibition of MSA-2 induced IL-6 mRNA expression in kidney at 10 mg/kg, ip pre-treated for 1 hr followed by stimulated with MSA-2 for 4 hrs by real-time PCR analysis; format: functional, organism-based; conditions: time 5.0 hrs
Mus musculus [17] = test: Anti-inflammatory activity against MSA-2 induced C57BL/6 mouse inflammation model assessed as inhibition of MSA-2 induced Isg56 RNA expression in kidney at 10 mg/kg, ip pre-treated for 1 hr followed by stimulated with MSA-2 for 4 hrs by real-time PCR analysis; format: functional, organism-based; conditions: time 5.0 hrs
Mus musculus [18] = test: Anti-inflammatory activity against Cisplatin induced C57BL/6 mouse kidney inflammation model assessed as suppression of Cisplatin induced Ifn-beta mRNA level in kidney at 5 mg/kg, ip treated for 3 days by real-time PCR analysis; format: functional, organism-based; conditions: time 3.0 day
Mus musculus [19] = test: Anti-inflammatory activity against Cisplatin induced C57BL/6 mouse kidney inflammation model assessed as suppression of Cisplatin induced Isg56 mRNA level in kidney at 5 mg/kg, ip treated for 3 days by real-time PCR analysis; format: functional, organism-based; conditions: time 3.0 day
HEK293 = test: Protection of Cisplatin induced apoptosis in human HEK293 cells assessed as apoptotic cells at 10 uM measured after 72 hrs by flow cytometry; format: functional, cell-based
Mus musculus [20] = test: Anti-inflammatory activity against Cisplatin induced C57BL/6 STING-KO mouse kidney inflammation model assessed as prevention of Cisplatin induced glomerular injury at 5 mg/kg, ip treated for 3 days; format: functional, organism-based; conditions: time 3.0 day
Mus musculus [21] = test: Effect on Isg15 expression in Cisplatin induced C57BL/6 STING-KO mouse kidney inflammation model at 5 mg/kg, ip treated for 3 days by real-time PCR analysis; format: functional, organism-based; conditions: time 3.0 day
Mus musculus [22] = test: Effect on […] expression in Cisplatin induced C57BL/6 STING-KO mouse kidney inflammation model at 5 mg/kg, ip treated for 3 days by real-time PCR analysis; format: functional, organism-based; conditions: time 3.0 day
Mus musculus [23] = test: Toxicity in TREX1 D18N mouse model assessed as change in body weight at 10 mg/kg, ip measured after 2 weeks; format: organism-based; conditions: in vivo, 336 h
Mus musculus [24] = test: Anti-inflammatory activity in TREX1 D18N mouse model assessed as reduction in Cxcl10 mRNA expression in heart at 10 mg/kg, ip measured after 2 weeks; format: functional, organism-based

Chain of Stimulator of interferon genes protein (Homo sapiens) (Q86WV6 whole entry): as the sequence (Q86WV6 whole entry, looked up, change not shown) above

N#CC/C=C/c1ccc2[nH]cc(NC(=O)Nc3ccc4c(c3)OC(F)(F)O4)c2c1
inhibition [1]: Active
bioavailability [2]: 12.7%
half-life [3]: 33.8 min
Activity [4]: inactive
inhibition [5]: Dose-dependent-effect
inhibition [6]: Active
inhibition [7]: Active
inhibition [8]: Active
inhibition [9]: Active
inhibition [10]: Active
inhibition [11]: Dose-dependent-effect
inhibition [12]: Dose-dependent-effect
inhibition [13]: Dose-dependent-effect
inhibition [14]: Dose-dependent-effect
inhibition (Mus musculus [15]): Active
inhibition (Mus musculus [16]): Active
inhibition (Mus musculus [17]): Active
inhibition (Mus musculus [18]): Active
inhibition (Mus musculus [19]): Active
Activity (HEK293): Active
Activity (Mus musculus [20]): inactive
Activity (Mus musculus [21]): inactive
Activity (Mus musculus [22]): inactive
Activity (Mus musculus [23]): Non-toxic
Activity (Mus musculus [24]): Active
